# Measured values reported in US20250282732A1, “NOVEL ESTERS OF 1,2,3,4,4a,5,6,7,8,9,10,10a-DODECAHYDROBENZO[G]QUINOLIN-6-OL COMPOUNDS AND USES THEREOF” (INTEGRATIVE RESEARCH LABORATORIES SWEDEN AB, priority 2022, published 2025).
# Legend:
# Assay type in all cases: in vivo, rat
# [1] = test system: non-pre-treated Sprague-Dawley rats; experiment: Spontaneous locomotor activity (distance travelled); settings: for effect on motor activity patterns (distance travelled): 0.3 μmol/kg single dose, Preparation 4A SC, Example 5 PO and SC, vs saline, 0-180 min post dosing; for on-set of action (distance travelled increases after the initial decrease): time after administration
# Method: Behavioral activity was measured using eight Digiscan activity monitors (RXYZM (16) TAO, Omnitech Electronics, Columbus, OH, USA), connected to an Omnitech Digiscan analyzer and an Apple Macintosh computer equipped with a digital interface board (NB DIO-24, National Instruments, USA). Each activity monitor consisted of a quadratic metal frame (W×L=40 cm×40 cm) equipped with photo beam sensors. During measurements of behavioral activity, a rat was put in a transparent acrylic cage (W×L×H, 40×40×30 cm) which in turn was placed in the activity monitor. Each activity monitor was equipped with three rows of infrared photo beam sensors, each row consisting of 16 sensors. Two rows were placed along the front and the side of the floor of the cage, at a 90° angle, and the third row was placed 10 cm above the floor to measure vertical activity. Photo beam sensors were spaced 2.5 cm apart. Each activity monitor was fitted in an identical sound and light attenuating box containing a weak house light and a fan. The computer software was written using object-oriented programming (LabVIEW™, National instruments, Austin, TX, USA). Behavioral data from each activity monitor, representing the position (horizontal center of gravity and vertical activity) of the animal at each time, were recorded at a sampling frequency of 25 Hz and collected using a custom written LABView™ application. The data from each recording session were stored and analyzed with respect to distance traveled. Each behavioral recording session lasted 180 min, starting approximately 5 min after the injection of test compound.
# Compounds disclosed herein have been tested for effects on spontaneous locomotor activity in non-pre-treated Sprague-Dawley rats (based on accumulated distance travelled 0-180 min post dosing), and with the single dose of 0.3 μmol/kg (n=5, SC) compared to a control group of animals (n=5) that obtained saline (SC). The prior art compound according to Preparation 4A was administered subcutaneously (SC). The compound according to Example 5 was administered perorally (PO) and subcutaneously (SC), respectively. The unit of the distance travelled is an arbitrary unit.
# The animals were placed in the motility meters immediately after administration and locomotor activity was recorded for 180 minutes. Results are presented as distance travelled for the control group (empty bar) and for the group of animals that obtained the drug (filled bar).
# The animals were placed in the motility meters immediately after administration and locomotor activity was recorded for 180 minutes. Results are presented as distance travelled for the control group (empty bars) and for the group of animals that obtained the drug (filled bar).
# Arc mRNA = Arc mRNA tissue levels in brain regions (real-time PCR); settings: SC, 0.3 and 1 μmol/kg; 60 min after injection; vs controls
# Method: (§1) Animals were killed 60 min after the injection of the drugs by decapitation.
# (§2) The brains were dissected into a left and a right part. The left part was analyzed for gene expression and dissected into 4 different areas:
# (§3) Limbic system (containing nucleus accumbens, most parts of the olfactory tubercle, ventral pallidum and amygdala), striatum, frontal cortex, and hippocampus.
# (§4) Total RNA was prepared by RNeasy Plus Universal Tissue Mini Kit (Qiagen).
# (§5) RNA pellets were dissolved in RNAse-free water and stored at −80° C. The sample concentration was determined spectrophotometrically by a Nanorop ND-1000.
# A two-step reversed transcription was performed by using a SuperScript III kit (Invitrogen). 1 μg of total RNA was reversed transcribed with 5 μl 2× RT Reaction Mix, 1 μl RT Enzyme and the mix volume was adjusted to 10 μl with RNAse-free water. The samples were incubated at 25° C. for 10 mi, 50° C. for 30 mi and finally 85° C. for 5 mi. 1 U of E. coli RNase H was added following incubation at 37° C. for 20 mi and 85° C. for 5 minutes. The cDNA solution was diluted 40 times in Tris EDTA buffer solution pH8 (Merck) and stored at −20° C.
# Three sequences (arc and two reference genes) were amplified together in a triplex PCR-reaction. For real-time PCR measurements: 5 μl of the cDNA reaction was amplified in a 20 μl reaction mixture containing 10 μl PerfeCTa MultiPlex qPCR SuperMix (Quantabio), 3.5 μl RNAse-free water, 0.15 μM of each primer and 0.1 μM of each probe. Real-time PCR was measured on CFX96 (Bio-Rad) using the following settings for all genes: 3 mi pre-incubation at 95° C. followed by 40 cycles of denaturation at 95° C. for 15s, annealing and elongation at 60° C. for 1 mi. […]
# FIG. 5 illustrates the effects on tissue levels of Arc mRNA in four different regions of the brain (limbic regions, striatum, frontal cortex and hippocampus) after subcutaneous administration of two different compounds at two different doses as in comparison to that of corresponding control experiments. The bars in the left half of the figure represent the effects on ARC by the prior art compound according to Preparation 4A ((4aR,10aR)-1-propyl-1,2,3,4,4a,5,8,9,10,10a-decahydrobenzo[g]quinolin-6(7H)-one) and the bars in the right half of the figure represent the effects on ARC by the compound of the present disclosure according to Example 5 oxalic acid salt of ((4aR,10aR)-1-propyl-1,2,3,4,4a,5,6,7,8,9,10,10a-dodecahydrobenzo[g]quinolin-6-yl acetate (Mixture of 6R and 6S epimers). The effects on tissue levels of Arc by both of the two aforementioned compounds were measured at two different doses (0.3 μmol/kg and 1 μmol/kg) and the effect is presented as percent of control means±SEM. Statistical significance was assessed using Student's t-test (2 tailed) vs controls.
# Npas4 = Npas4 mRNA tissue levels in brain regions (TaqMan PCR); settings: 60 min after injection; to a greater extent than the prior art compound according to Preparation 4A
# Method: as §1, §2, §3, §4, §5
# A two-step reversed transcription was performed by using a SuperScript III kit (Invitrogen). 1 μg of total RNA was reversed transcribed with 5 μl 2× RT Reaction Mix, 1 μl RT Enzyme and the mix volume was adjusted to 10 μl with RNAse-free water. The samples were incubated at 25° C. for 10 mi, 50° C. for 30 mi and finally 85° C. for 5 mi. […]
# EGR-1 (Early growth response qRnoCEP0022872) was analyzed in duplex with the reference gene HPRT (hypoxanthine phosphoribosyltransferase qRnoCEP0050840). Npas4 (neuronal PAS domain protein4 qRnoCEP0029461) was analyzed in singleplex. The reference gene Ppia (cyclophilin A peptidyl-propyl cis-trans isomeraseqRnoCIP0050815) was also analyzed in order to quantify gene expression for genes of interest.
Compound,effect on motor activity patterns (distance travelled) [1],"duration of action as compared to the prior art compound (trend) ([1]; 0.3 μmol/kg, increase in desired effect observed much later in the experiment)",on-set of action (distance travelled increases after the initial decrease) ([1]; 0.3 μmol/kg) [min],tissue levels of Arc in the frontal cortex (Arc mRNA),tissue levels of Arc in the limbic regions (Arc mRNA),tissue levels of Npas4 in the limbic regions (Npas4),immediate effect on motor activity: long distance travelled already within ([1]; 0.3 μmol/kg SC) [min]
"CCCN1CCC[C@@H]2CC3=C(CCCC3OC(C)=O)C[C@H]21.O=C(O)C(=O)O (stereo partly drawn) [Example 5, (4aR,10aR)-1-propyl-1,2,3,4,4a,5,6,7,8,9,10,10a-dodecahydrobenzo[g]quinolin-6-yl acetate]",induce hyperactivity,longer duration of action,35 to 40,dose-dependently increase,dose-dependently increases,increases tissue levels,
"CCCN1CCC[C@@H]2CC3=C(CCCC3=O)C[C@H]21 [Preparation 4A, (4aR,10aR)-1-propyl-1,2,3,4,4a,5,8,9,10,10a-decahydrobenzo[g]quinolin-6(7H)-one, reference compound]",induce hyperactivity,,20 to 25,dose-dependently increase,does not have,,20 to 45
